Test results taken from patent US8835433B2, “Optically pure diastereomers of 10-Propargyl-10-deazaaminopterin and methods of using same for the treatment of cancer” (Allos Therapeutics, Inc., priority 2010, dated 2014).

Experiments:
[1] = system: CWR22-RV1 (prostate) cell lines; assay: MTS growth inhibition assay, CWR22-RV1; type: cell-based; conditions: Homo sapiens, CWR22Rv1, separate experiments
[2] = system: SKBR-3 (breast cancer) human tumor cell line; assay: MTS growth inhibition assay, SKBR-3; type: cell-based; conditions: SK-BR-3, SK-BR3 (breast), 3 h treatment, 72 h recovery
Experimental: (§1) The agents PDX, PDX-10a, PDX-10b, were evaluated for growth inhibitory activity against, MDA-MB-435, SKBR-3 and NCI-H460 human tumor cell lines. Growth inhibition was measured by MTS assay following three hours of continuous treatment and a seventy-two hour recovery incubation. The purpose of these studies was to determine the cytotoxic activity of the compounds in the tumor cell lines studies studied.
Materials and Methods. Preparation of PDX-10a and PDX-10b was performed as discussed in Examples 1-2. The PDX compounds were diluted in dimethylsulfoxide (DMSO) at a concentration of 20 mM. From this solution a stock solution of 2 mM was made by dilution with phosphate-buffered saline (PBS). This 2 mM stock solution in 10% DMSO/90% PBS was used to make 2× concentrations of the titration series in cell growth medium which was added to the cell cultures in a 1:1 ratio to make 1× concentrations. Cell lines—The human tumor cell lines: MDA-MB-435 (melanoma), SKBR-3 (breast cancer) and NCI-H460 (lung cancer) were cultured in RPMI medium (RPMI; Nova Tech, Grand Island, N.Y.) containing ten percent dialyzed fetal bovine serum (FBS; Nova Tech). […]
Single Agent Pulse Studies—Treatment with test agents or standard agents (controls) was initiated 24 hours after plating cells (Day 1). […] Following incubation, the viable cell number was quantified by the MTS assay described below. […]
MTS Assay—Cell viability was determined using the MTS assay. […] Formazan production was quantified by spectrophotometric measurement at 490 nm and is proportional to viable cell number. […] Absorbance (OD) values were measured using a Dynex HD microplate reader at a single wavelength of 490 nm.
(§2) Data Analysis—Data from each experiment was collected and expressed as OD490 versus the log10 of the test agent concentration. […]

[3] = system: MDA-MB-435 (melanoma) human tumor cell line; assay: MTS growth inhibition assay, MDA-MB-435; type: cell-based; conditions: 3 h treatment, 72 h recovery
Experimental: as §1
(§3) Materials and Methods. Preparation of PDX-10a and PDX-10b was performed as discussed in Examples 1-2. The PDX compounds were diluted in dimethylsulfoxide (DMSO) at a concentration of 20 mM. From this solution a stock solution of 2 mM was made by dilution with phosphate-buffered saline (PBS). This 2 mM stock solution in 10% DMSO/90% PBS was used to make 2× concentrations of the titration series in cell growth medium which was added to the cell cultures in a 1:1 ratio to make 1× concentrations. Cell lines—The human tumor cell lines: MDA-MB-435 (melanoma), SKBR-3 (breast cancer) and NCI-H460 (lung cancer) were cultured in RPMI medium (RPMI; Nova Tech, Grand Island, N.Y.) containing ten percent dialyzed fetal bovine serum (FBS; Nova Tech). Once cells reached seventy percent confluency, they were trypsinized and resuspended in an alternate media (RPMI containing five percent dialyzed FBS (Hyclone, Logan, Utah). One day prior to treatment (Day 0), cultures were suspended at a concentration of 1−7.5×10^4 cell/ml and 100 μl aliquots were plated into each well of a 96-well microtiter plate at a final concentration of 1×10^3-7.5×10^3 cells/well. Cells were incubated for 24 hours at 37° C. prior to exposure with agents.
(§4) Test Agents—racemic PDX, and individual diastereomers PDX-10a and PDX-10b were prepared as described above. Cells were treated 24 hours after plating (Day 1) with vehicle (media) alone or the above test agents for three hours at concentrations between 3 μM and 10 μM.
(§5) Single Agent Pulse Studies—Treatment with test agents or standard agents (controls) was initiated 24 hours after plating cells (Day 1). Cells were incubated at 37° C. with each of the test agents or a “chemococktail” (positive control) consisting of 215 μM Etoposide, 20 μM Taxol, 38.5 nM Velcade at final concentration for three hours. Following treatment, drug was removed, growth media added, and cells incubated at 37° C. for 72 hours. Following incubation, the viable cell number was quantified by the MTS assay described below. Experiments were repeated twice at the same concentrations. Results from these studies were used to calculate an IC50 value (concentration of drug that inhibits cell growth by 50% of the vehicle) for each compound. IC50 values were generated with Prizm software.
(§6) MTS Assay—Cell viability was determined using the MTS assay. This colorimetric procedure measures conversion of the MTS reagent (a tetrazolium salt) to formazan by living cells. Formazan production was quantified by spectrophotometric measurement at 490 nm and is proportional to viable cell number. For these studies, cells were cultured and treated as listed above. At the end of the treatment, 20 μl MTS tetrazolium (1.9 mg/ml in PBS, pH 6.0) was added to the cells for 1 hour at 37° C. Absorbance (OD) values were measured using a Dynex HD microplate reader at a single wavelength of 490 nm.
as §2

[4] = system: NCI-H460 (lung cancer) human tumor cell line; assay: MTS growth inhibition assay, NCI-H460; type: cell-based
Experimental: as §1, §3, §4, §5, §6
Data Analysis—Data from each experiment was collected and expressed as OD490 versus the log10 of the test agent concentration. Using the statistical analysis package of the Prizm analytical software (GraphPad, San Diego, Calif.), a non-linear curve fit was performed which yielded the 50% inhibition concentration of the test article (IC50).

[5] = Pharmacokinetics in rat (PDX-T-07034-R); type: in vivo; conditions: both sexes, plasma, 5 mg/kg, racemic mixture, males and females (mean)
Experimental: (§7) Bioanalytical methods were developed and validated for quantitation of the 2 pralatrexate C10 diastereomers (PDX-10a and PDX-10b) in human, rat and dog plasma and urine. The basic bioanalytical method involves extraction of PDX-10a and PDX-10b from the matrix utilizing C18 solid-phase extraction (SPE) cartridges followed by derivatization (methylation with acetyl chloride) of the diastereomers for separation detection. The derivatized extracts are injected on a chiral high-performance liquid chromatography (HPLC) column for quantitation of each diastereomer by liquid chromatography-tandem mass spectrometry (LC/MS/MS). The lower limit of quantitation (LLOQ) for both diastereomers in plasma and urine matrices was 0.5 ng/mL. […]

[6] = Pharmacokinetics in dog (PDX-T-07054-D); type: in vivo; conditions: both sexes, dog, plasma, 0.7 mg/kg, dog, racemic mixture, males and females (mean)
Experimental: as §7

[7] = Pharmacokinetics in human (PDX-008, noncompartmental); type: in vivo; conditions: both sexes, human, plasma, intravenous, 30 mg/m^2, human, racemic mixture, males and females (mean)
Experimental: Bioanalytical methods were developed and validated for quantitation of the 2 pralatrexate C10 diastereomers (PDX-10a and PDX-10b) in human, rat and dog plasma and urine. The basic bioanalytical method involves extraction of PDX-10a and PDX-10b from the matrix utilizing C18 solid-phase extraction (SPE) cartridges followed by derivatization (methylation with acetyl chloride) of the diastereomers for separation detection. The derivatized extracts are injected on a chiral high-performance liquid chromatography (HPLC) column for quantitation of each diastereomer by liquid chromatography-tandem mass spectrometry (LC/MS/MS). The lower limit of quantitation (LLOQ) for both diastereomers in plasma and urine matrices was 0.5 ng/mL.
In humans, PDX-10b clearance was approximately 50% lower for both renal clearance (CLren) and nonrenal clearance (CLnonren). The lower clearance and ˜2-fold lower volume of distribution at steady state (Vdss) of PDX-10b are likely responsible for the 2-fold higher plasma exposure of PDX-10b compared with PDX-10a that is observed in humans. However, the plasma concentration-time profiles for both diastereomers declined in parallel, and terminal elimination half-life (t1/2term) for both diastereomers was virtually identical. The biological cause for the observed stereoselectivity across species is unknown, but may be due to isomeric differences in plasma protein binding. Isomeric differences in tissue distribution and/or renal and hepatobiliary transport may contribute as well.

[8] = C1D1, 30 mg/m^2 (0.81 mg/kg), n = 10
[9] = C1D6 or C2D6, 30 mg/m^2 (0.81 mg/kg), n = 6

IC50 [2]: 27.1 nM
IC50 ([3]; Homo sapiens, MDA-MB-435, MDA-MB-435 (melanoma)): 129 nM
IC50 ([3]; MDA-MB-435 (melanoma)): 129 nM
IC50 ([4]; Homo sapiens, NCI-H460, NCI-H460 (lung), 3 h treatment, 72 h recovery, MTS): 100 nM
IC50 ([4]; Homo sapiens, NCI-H460, NCI-H460 repeat assay): 124 nM
IC50 ([4]; NCI-H460 repeat assay): 124 nM
AUC(0-inf) ([5]; Day 1, 5 mg/kg (30 mg/m^2)): 4870 ng·h/mL
Cmax ([5]; Day 1, 5 mg/kg (30 mg/m^2)): 19200 ng/mL
AUC(0-inf) ([5]; Day 85, 5 mg/kg (30 mg/m^2)): 4500 ng·h/mL
Cmax ([5]; Day 85, 5 mg/kg (30 mg/m^2)): 14300 ng/mL
AUC(0-inf) ([6]; Day 1, 0.7 mg/kg (14 mg/m^2)): 1560 ng·h/mL
Cmax ([6]; Day 1, 0.7 mg/kg (14 mg/m^2)): 1790 ng/mL
AUC(0-inf) ([6]; Day 281, 0.7 mg/kg (14 mg/m^2)): 1340 ng·h/mL
Cmax ([6]; Day 281, 0.7 mg/kg (14 mg/m^2)): 649 ng/mL
AUC(0-inf) [7, 8]: 4460 ng·h/mL
Cmax [7, 8]: 5820 ng/mL
AUC(0-inf) [7, 9]: 3530 ng·h/mL
Cmax [7, 9]: 4960 ng/mL
Compound: C#CCC(Cc1cnc2nc(N)nc(N)c2n1)c1ccc(C(=O)N[C@@H](CCC(=O)O)C(=O)O)cc1 (mixture of isomers) [PDX, (2S)-2-[[4-[(1RS)-1-[(2,4-diaminopteridin-6-yl)methyl]but-3-ynyl]benzoyl]amino]pentanedioic acid, reference compound]
IC50 [1]: 8.3 nM
